Measurements as given in patent US20210382051A1, “METHODS AND COMPOUND FOR THE IDENTIFICATION AND TREATMENT OF TUBERCULOSIS” (priority 2020, published 2021).

Legend:
reverse transcriptase = reverse transcriptase (Human immunodeficiency virus type 1 group M subtype B, UniProt P04585); assay: Effect on reverse transcriptase; type: biochemical, HIV
Source text: (§1) Referring to FIGS. 2A and 2B, an anti-pathogenic agent and/or the anti-pathogenic compound may be identified as 90I (or 90i). The anti-pathogenic compound may be derived from the herbal extract identified as H2K1001. […] The essence of combination drug therapy, HAART regiments, may be its effectiveness against all HIV-1 strains that is potent enough to bring the viral load down to an undetectable level. This may be achieved by combining an RT and a PR combination synergy to affect multiple modes of action.

protease (PR) enzyme = protease (PR) enzyme (Human immunodeficiency virus type 1 group M subtype B, UniProt P04585); assay: Effect on protease (PR) enzyme; type: biochemical, HIV
Source text: as §1

HIV strains = assay: Activity against HIV strains; type: cell-based; conditions: all HIV strains
Source text: as §1

[1] = tested on: gamma interferon production in monocyte and/or macrophage primary cell; assay: Production of gamma interferon by cells receiving 90I (FIG. 3); type: cell-based; conditions: compared with positive control PMA-lonomycin combination; ten days assay, single time point drug addition
Source text: FIG. 3 illustrates a graph showing production of gamma interferon by cells receiving 90I compared to other drugs, according to an exemplary embodiment of the present general inventive concept.
Referring to FIG. 3, this assay may underscore 90I's absorptions in a monocyte and/or a macrophage primary cell, such that the anti-pathogenic compound may have stability and longer pharmacokinetic half-life in ten days assay with single time point drug addition.
Moreover, activated CD8+ cells are reported to produce high levels of gamma interferon, which may be involved in the anti-TB immune responses, contributing to both control of bacterial spread and concomitant lymphoid follicular lyses. […] This finding may have a far-reaching implication and relevant in that H2K1001 and/or 90I has the potential in the restoration of immune competence, a strong immune modulator. 90I may be as strong as a vaccine because it may modulate the immune cell signal switch from Th2 to Th1 (i.e. a subset of T lymphocytes that express CD4 and are known as T-helper cells, they produce cytokines, specifically Th1-type cytokines). T-helper subset population Th1 and Th2 subset have been identified in animals and humans based on cytokines secreted. […]

O=C(OCCOCCOC(=O)c1ccccc1)c1ccccc1 [90I, diethylene glycol dibenzoate]
effectiveness against reverse transcriptase (reverse transcriptase): potently effective | effectiveness against protease (PR) enzyme (protease (PR) enzyme): potently effective | potency against HIV strains (HIV strains): highly potent against all HIV strains | amount of gamma interferon produced [1]: equivalent to that of the positive control
